Source: ChEMBL document CHEMBL1139548, “Cyclic ADP-ribose analogues containing the methylenebisphosphonate linkage: effect of pyrophosphate modifications on Ca2+ release activity” (J Med Chem, 2005)

Assay: Effective concentration against release of [Ca2+] ions from sea urchin egg
Format: functional

EC50 [nM] | SMILES
300 | N=c1c2ncn3c2ccn1C1OC(COP(=O)(O)CP(=O)(O)OC[C@H]2OC3[C@H](O)C2O)[C@@H](O)[C@H]1O (single isomer, unassigned)
856 | N=c1c2ncn3c2ncn1C1OC(COP(=O)(O)CP(=O)(O)OC[C@H]2OC3[C@H](O)C2O)[C@@H](O)[C@H]1O (single isomer, unassigned)
